Results from publication PMC4970510 (Journal of Medicinal Chemistry, 2016).
Entries after “also recorded” stand apart in the source; their conditions may differ. One block for each molecule: values may come before it.

Columns and labels:
[1] = tested on: mouse chronic constriction injury (CCI) model; details: same dose (3 μmol/kg po); cited from earlier work
hA3AR [2] = biological target: T1, hA3AR (Homo sapiens, UniProt P0DMS8); type: cell-based; details: relative to 1 at 10 μM, CHO cells
T1 sequence (P0DMS8 1-318): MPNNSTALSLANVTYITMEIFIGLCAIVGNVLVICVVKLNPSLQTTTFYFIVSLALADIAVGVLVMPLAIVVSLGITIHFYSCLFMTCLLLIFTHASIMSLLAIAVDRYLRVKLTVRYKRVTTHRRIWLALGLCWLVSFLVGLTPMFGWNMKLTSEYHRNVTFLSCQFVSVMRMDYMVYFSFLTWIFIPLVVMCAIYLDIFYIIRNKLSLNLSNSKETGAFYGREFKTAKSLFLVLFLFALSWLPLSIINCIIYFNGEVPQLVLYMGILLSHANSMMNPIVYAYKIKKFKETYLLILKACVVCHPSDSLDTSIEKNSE

hA1AR = biological target: T2, hA1AR (Homo sapiens, UniProt P30542); test: Radioligand binding at hA1AR
T2 sequence (P30542 1-326): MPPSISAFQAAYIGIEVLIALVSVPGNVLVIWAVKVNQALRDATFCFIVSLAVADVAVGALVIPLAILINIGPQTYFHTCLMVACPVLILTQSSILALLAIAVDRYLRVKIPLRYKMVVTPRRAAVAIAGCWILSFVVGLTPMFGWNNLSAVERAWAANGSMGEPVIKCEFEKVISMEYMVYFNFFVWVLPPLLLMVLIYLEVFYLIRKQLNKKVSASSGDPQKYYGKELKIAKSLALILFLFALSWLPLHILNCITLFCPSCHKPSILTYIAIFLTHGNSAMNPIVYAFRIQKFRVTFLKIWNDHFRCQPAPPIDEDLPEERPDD

hA2AAR = hA2AAR (Homo sapiens, UniProt P29274); test: Radioligand binding at hA2AAR
hA2AAR, sequence (P29274 whole entry): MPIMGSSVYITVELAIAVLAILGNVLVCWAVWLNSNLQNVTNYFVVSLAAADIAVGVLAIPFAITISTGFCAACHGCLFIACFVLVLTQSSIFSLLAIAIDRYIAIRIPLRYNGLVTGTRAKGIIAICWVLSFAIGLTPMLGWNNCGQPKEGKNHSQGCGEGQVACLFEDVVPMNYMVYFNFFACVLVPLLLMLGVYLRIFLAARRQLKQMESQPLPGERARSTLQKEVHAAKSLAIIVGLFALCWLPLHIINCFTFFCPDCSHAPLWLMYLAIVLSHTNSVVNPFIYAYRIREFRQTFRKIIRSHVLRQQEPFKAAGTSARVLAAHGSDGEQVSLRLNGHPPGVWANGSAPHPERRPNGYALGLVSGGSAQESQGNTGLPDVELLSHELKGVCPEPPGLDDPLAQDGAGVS

[3] = biological target: human dopamine transporter (hDAT) (Homo sapiens, UniProt Q01959); test: PDSP radioligand binding at human dopamine transporter; details: at 10 μM, [3H] tropane radioligand
human dopamine transporter (hDAT), sequence (Q01959 whole entry): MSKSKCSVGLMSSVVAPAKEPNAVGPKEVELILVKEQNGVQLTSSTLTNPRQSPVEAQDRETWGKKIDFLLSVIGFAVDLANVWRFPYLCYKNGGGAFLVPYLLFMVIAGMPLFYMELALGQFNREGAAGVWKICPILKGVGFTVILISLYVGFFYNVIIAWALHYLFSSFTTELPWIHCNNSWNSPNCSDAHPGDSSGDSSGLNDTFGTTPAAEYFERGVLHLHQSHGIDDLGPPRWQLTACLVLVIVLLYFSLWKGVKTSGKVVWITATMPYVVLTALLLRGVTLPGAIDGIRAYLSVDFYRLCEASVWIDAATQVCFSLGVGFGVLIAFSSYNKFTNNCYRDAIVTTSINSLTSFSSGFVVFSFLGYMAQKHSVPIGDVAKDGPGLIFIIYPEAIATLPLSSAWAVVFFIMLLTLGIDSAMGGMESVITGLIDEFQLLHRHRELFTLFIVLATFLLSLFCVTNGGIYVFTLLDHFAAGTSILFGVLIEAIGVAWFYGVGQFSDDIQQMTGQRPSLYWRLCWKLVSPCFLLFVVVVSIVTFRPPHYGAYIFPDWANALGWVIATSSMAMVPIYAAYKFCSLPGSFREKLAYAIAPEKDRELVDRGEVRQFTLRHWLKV

[4] = tested on: mouse chronic constriction injury (CCI) model; test: Mouse chronic constriction injury; type: in vivo; details: po, 3 μmol/kg
[5] = PDSP broad off-target screen of receptors and channels; type: binding; details: PDSP screen of diverse receptors
hA3AR [6] = biological target: T1, hA3AR; test: Radioligand binding at hA3AR; details: ratio of hA3AR Ki
mA3AR = biological target: T3, mA3AR (Mus musculus, UniProt Q61618); type: cell-based; details: compared to reference full agonist 55
T3 sequence (Q61618 1-319): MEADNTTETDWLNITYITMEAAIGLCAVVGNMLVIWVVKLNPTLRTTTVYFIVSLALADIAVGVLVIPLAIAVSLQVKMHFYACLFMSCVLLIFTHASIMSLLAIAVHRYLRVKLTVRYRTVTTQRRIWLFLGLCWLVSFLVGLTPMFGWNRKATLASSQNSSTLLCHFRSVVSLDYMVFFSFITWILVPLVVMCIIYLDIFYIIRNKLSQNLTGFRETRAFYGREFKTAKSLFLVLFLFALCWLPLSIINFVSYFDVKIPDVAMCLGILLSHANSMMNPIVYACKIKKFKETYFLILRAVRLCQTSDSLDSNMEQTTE

human A2BAR = details: at 1 mM, human fibroblasts; cited from earlier work
adenosine deaminase = details: cited from earlier work
[7] = tested on: canine coronary artery A2AAR; details: activation of canine coronary artery A2AAR; cited from earlier work

Structure (SMILES): CNC(=O)[C@@]12C[C@@H]1[C@@H](n1cnc3c(NCc4cccc(Cl)c4)nc(C#Cc4ccc(F)c(F)c4)nc31)[C@H](O)[C@@H]2O [Compound 8]
Protection against mechanoallodynia at 1 h [1]: 100%

Structure (SMILES): CNC(=O)[C@@]12C[C@@H]1[C@@H](n1cnc3c(/C=C(\O)c4ccccc4)nc(C#Cc4ccccc4)nc31)[C@H](O)[C@@H]2O [Compound 12, (1S,2R,3S,4R,5S)-2,3-Dihydroxy-4-(6-((Z)-2-hydroxy-2-phenylvinyl)-2-(phenylethynyl)-9H-purin-9-yl)-N-methylbicyclo[3.1.0]hexane-1-carboxamide]
Fold more potent at hA3AR than C2–Cl derivative 11b (hA3AR [6]): 15 fold
mA3AR agonist efficacy (mA3AR): full agonists
Reversal of mechanoallodynia (neuropathic pain) ([4]; day 7): efficacious in reducing pain
Reversal of the pain ([4]; day 7): < 100%

Structure (SMILES): OC[C@H]1O[C@@H](n2cnc3cncnc32)[C@H](O)[C@@H]1O [Compound 56, purine-9-riboside]
Efficacy relative to 10 μM adenosine (human A2BAR): 15%
Adenosine deaminase inhibition (adenosine deaminase): weak inhibitor
Fold less potent than adenosine [7]: 40 fold

Structure (SMILES): Cc1ncnc2c1ncn2[C@@H]1O[C@H](CO)[C@@H](O)[C@H]1O [6-methylpurine-9-riboside]
Efficacy relative to 10 μM adenosine (human A2BAR): 6%

Second part, led by results:

hA3AR agonist efficacy (hA3AR [2]): potent, full agonists
Ki (hA1AR): > 10 µM
Ki (hA2AAR): > 10 µM
Structure (SMILES): CNC(=O)[C@@]12C[C@@H]1[C@@H](n1cnc3c(C)nc(C#Cc4ccc(Cl)s4)nc31)[C@H](O)[C@@H]2O [Compound 19, (1S,2R,3S,4R,5S)-4-(2-((5-Chlorothiophen-2-yl)ethynyl)-6-methyl-9H-purin-9-yl)-2,3-dihydroxy-N-methylbicyclo[3.1.0]hexane-1-carboxamide]

Enhancement of hDAT radioligand binding [3]: roughly 200%
Off-target interactions [5]: no significant binding inhibition
Structure (SMILES): CNC(=O)[C@@]12C[C@@H]1[C@@H](n1cnc3c(C)nc(C#Cc4ccccc4)nc31)[C@H](O)[C@@H]2O [Compound 15]
Reversal of mechanoallodynia (neuropathic pain) ([4]; day 7): efficacious in reducing pain
Reversal of the pain ([4]; day 7): < 100%

hA3AR agonist efficacy (hA3AR [2]): potent, full agonists
Ki (hA1AR): > 10 µM
Ki (hA2AAR): > 10 µM
Off-target interactions [5]: no off-target interactions
Structure (SMILES): CNC(=O)[C@@]12C[C@@H]1[C@@H](n1cnc3cnc(C#Cc4ccc(Cl)s4)nc31)[C@H](O)[C@@H]2O [Compound 21, (1S,2R,3S,4R,5S)-4-(2-((5-Chlorothiophen-2-yl)ethynyl)-9H-purin-9-yl)-2,3-dihydroxy-N-methylbicyclo[3.1.0]hexane-1-carboxamide]
Duration of action ([4]; day 7): at least 5 h
Reversal of mechanoallodynia (neuropathic pain) ([4]; day 7): clearly more efficacious and longer lasting; also recorded: completely reversing mechanoallodynia
Reversal of mechanoallodynia (neuropathic pain) ([4]; day 7, listed as MRS7220): completely reversed
